Data published in patent US20060089410A1, “Combination of chemotherapeutic drugs for increasing antitumor activity” (Titan Pharmaceuticals, Inc., priority 2002, published 2006).
Counter-ions that a name gives are not always drawn. Like-named read-outs stand apart in the source and are kept apart here.

Experiments:
[1] = test system: T24 Bladder transitional carcinoma cells; test: Crystal violet microtiter assay, Pivanex then cytotoxic drug, T24; type: cell-based, human; conditions: Pivanex 0 μM
Description: (§1) T24 Bladder transitional carcinoma cells, Calu-6 anaplastic lung carcinoma cells, and SK-MES-1 squamous lung cell carcinoma cell cultures were purchased from the American Type Culture Collection (Manassas, Va.). All cell lines were cultured in RPMI-1640 with 10% fetal calf serum. For culture in microtiter dishes, cells were plated at a density of 10^4 cells/well and incubated at 37° C., 5% CO2 overnight.
(§2) After overnight incubation, drugs were added to wells in quadruplicate and incubated for 6 to 96 hours in the presence or absence of the oxyalkylene containing compound. […] the media was removed, fresh media were added with cytotoxic drug, and the cultures were incubated for another 6 hours.
(§3) The wells were then washed and medium without drug was added to each well. Microtiter plates were subsequently incubated for an additional 3 days before cell density was determined by a Crystal Violet Assay. Some cultures were alternatively fixed in methanol and stained with hematoxylin and eosin (H&E) stain for 5 minutes prior to microphotography.
(§4) PIVANEX (pivaloyloxymethyl butyrate) was obtained from Titan Pharmaceuticals Inc. (South San Francisco, Calif.) and was admixed with 0.05% Intralipid™ (Fresenius Kabi, Clayton, N.C.) prior to addition to culture media. The cytotoxic drugs gemcitabine (Gemzar; Eli Lilly and Co., Indianapolis, Ind.), cisplatin (Platinol, Bristol-Myers Squibb Co., Princeton, N.J.), paclitaxel (Taxol; Bristol-Myers Squibb Co., Princeton, N.J.), and docetaxel (Taxotere, Aventis Pharmaceuticals Products, Inc., Bridgewater, N.J.) were studied with PIVANEX.
(§5) Cells in microtiter wells were rinsed with PBS and fixed in two volumes of 100% cold methanol for 5 minutes. One volume of 0.5% crystal violet in 20% methanol was added and the attached cells stained for 10 minutes. The cells were then washed and crystal violet was eluted with 0.1 N sodium citrate buffer and read on an ELISA plate reader at 490 nm.

[2] = test system: SK-MES-1 squamous lung cell carcinoma cell; test: Crystal violet microtiter assay, Pivanex then cytotoxic drug, SK-MES-1; type: cell-based; conditions: Pivanex 0 μM
Description: as §1, §2, §3, §4, §5

[3] = test system: Calu-6 anaplastic lung carcinoma cells; test: Crystal violet microtiter assay, Pivanex then cytotoxic drug, Calu-6; type: cell-based; conditions: Pivanex 0 μM
Description: as §1, §2, §3, §4, §5

[4] = test system: leukemic cells isolated from myelogenous leukemic patients; conditions: in vitro
[5] = cited from earlier work
[6] = test system: refractory acute myelogenous leukemia in relapse; conditions: child, 0.5 g/kg/day; cited from earlier work
[7] = test system: H23 (NCI-H23) NSCLC cell line; test: MTS growth inhibition assay, sequencing of Pivanex and docetaxel, H23; type: cell-based, human; conditions: after 24 hour exposure
H522 NSCLC cell line = test: MTS growth inhibition assay, sequencing of Pivanex and docetaxel, H522; type: cell-based, human; conditions: after 24 hour exposure
Description: Human Non-Small Cell Lung Carcinoma Cell Lines, H522 and NCI-H23, were evaluated for growth inhibitory activity of Pivanex, alone and in combination with the standard chemotherapeutic agent, docetaxel. Cells were treated for three days with Pivanex followed by 24 hours of exposure to docetaxel or the cells were treated for 24 hours with docetaxel followed by three days of exposure to Pivanex. The cell growth inhibition was judged at the end of the 4-day experiments by a standard staining technique using MTS tetrazolium vital stain. […]
Exponentially growing cells were harvested with trypsin (0.05%)/EDTA (0.02%) and re-suspended in fresh medium containing 10% FBS. […] Absorbance was documented on a Dynex HD microplate reader at a wavelength of 490 nm. IC50 values were determined by using the Prism® GraphPad software from 3 different tests, each of which involved 4 replicates for each dose determination. The data are presented as percent growth inhibition, where 0% represents the mean value in wells to which only vehicle (0.1% DMSO) was added and was calculated as follows: % Growth Inhibition=(1−(ODtest/ODvehicle))×100 where ODtest is the optical density of the tested sample, OD vehicle is the optical density of the vehicle in which each respected drug is dissolved. […]

N.N.[Cl][Pt][Cl] [Cisplatin, cisplatin, reference compound]
T24 cancer cell viability (A^490 Absorbance) ([1]; cisplatin 5 μM): 0.434
T24 cancer cell viability (A^490 Absorbance) ([1]; cisplatin 10 μM): 0.404
T24 cancer cell viability (A^490 Absorbance) ([1]; cisplatin 20 μM): 0.25
T24 cancer cell viability (A^490 Absorbance) ([1]; cisplatin […]): 0.486
SK-MES-1 non-small cancer cell viability (A^490 Absorbance) ([2]; cisplatin 10 μM): 1.562
SK-MES-1 non-small cancer cell viability (A^490 Absorbance) ([2]; cisplatin 20 μM): 1.477
Calu-6 cancer cell viability (A^490 Absorbance) ([3]; cisplatin 5 μM): 0.557
Calu-6 cancer cell viability (A^490 Absorbance) ([3]; cisplatin 10 μM): 0.328
Calu-6 cancer cell viability (A^490 Absorbance) ([3]; cisplatin 20 μM): 0.238
Calu-6 cancer cell viability (A^490 Absorbance) ([3]; cisplatin […]): 0.608

Nc1ccn([C@@H]2O[C@H](CO)[C@@H](O)C2(F)F)c(=O)n1 [Gemcitabine, gemcitabine]
T24 cancer cell viability (A^490 Absorbance) ([1]; gemcitabine 10 nM): 0.48
T24 cancer cell viability (A^490 Absorbance) ([1]; gemcitabine 50 nM): 0.422
Calu-6 cancer cell viability (A^490 Absorbance) ([3]; gemcitabine 25 nM): 0.587
Calu-6 cancer cell viability (A^490 Absorbance) ([3]; gemcitabine 50 nM): 0.466
Calu-6 cancer cell viability (A^490 Absorbance) ([3]; gemcitabine 100 nM): 0.456
Calu-6 cancer cell viability (A^490 Absorbance) ([3]; gemcitabine 200 nM): 0.403

CCCC(=O)O [butyric acid/salts, butyric acid]
cytotoxic and cytodifferentiating potency compared with retinoic acid, 1, 25-dihydroxy vitamin D and cytosine arabinoside [4]: most potent cytotoxic and cytodifferentiating agent
toxicity ([5]; child with refractory acute myelogenous leukemia in relapse, 0.5 g/kg/day): without detectable toxic effects
toxicity ([5]; clinical trials with high dosages): no toxicity
adverse reaction in clinical follow up ([5]; patient with acute myelogenous leukemia in relapse, 1.0 g/kg/day for 10 days and 1.5 g/kg/day for 6 days): no adverse reaction
toxicity ([5]; patients with neuroblastoma, doses of up to 10 g/day): no clinically detectable toxicity
clinical response [6]: partial and temporary remission

CC(=O)O[C@H]1C(=O)[C@@]2(C)[C@H]([C@H](OC(=O)c3ccccc3)[C@]3(O)C[C@H](OC(=O)[C@H](O)[C@@H](NC(=O)c4ccccc4)c4ccccc4)C(C)=C1C3(C)C)[C@]1(OC(C)=O)CO[C@@H]1C[C@@H]2O [Paclitaxel, paclitaxel, reference compound]
SK-MES-1 cancer cell viability (A^490 Absorbance) ([2]; paclitaxel 25 μM): 0.655
SK-MES-1 cancer cell viability (A^490 Absorbance) ([2]; paclitaxel 50 μM): 0.627
SK-MES-1 cancer cell viability (A^490 Absorbance) ([2]; paclitaxel 100 μM): 0.42

CC(=O)O[C@@]12CO[C@@H]1C[C@H](O)[C@@]1(C)C(=O)[C@H](O)C3=C(C)[C@@H](OC(=O)[C@H](O)[C@@H](NC(=O)OC(C)(C)C)c4ccccc4)C[C@@](O)([C@@H](OC(=O)c4ccccc4)[C@H]21)C3(C)C [Docetaxel, docetaxel]
cell growth with agent alone [7]: steep increase in H23 cell growth
Calu-6 cancer cell viability (A^490 Absorbance) ([3]; docetaxel 25 nM): 0.219
Calu-6 cancer cell viability (A^490 Absorbance) ([3]; docetaxel 50 nM): 0.183
Calu-6 cancer cell viability (A^490 Absorbance) ([3]; docetaxel 100 nM): 0.174
Calu-6 cancer cell viability (A^490 Absorbance) ([3]; docetaxel 200 nM): 0.148
cell growth with agent alone (H522 NSCLC cell line): steep increase in H522 cell growth
